Test systems include OVCAR-3; ACHN; LOX IMVI; Malme-3M; NCI-H226; NCI-H23; HL-60; SNB-19; SNB-75; SF-268; K562; RXF 393; OVCAR-4; COLO 205; SK-MEL-2; HCT-15; UACC-62; SW-620.
Holding throughout (test): inhibition of tumour cell growth, NCI panel, 48 h

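Briefly, cells in 96-well plates were exposed to five compound concentrations for 48 h, and endpoints were estimated by linear interpolation. GI50 is the concentration that inhibits growth by half.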 Active and inactive are the calls of the source. No stated cut-off is given here; in the data, active = GI50 up to about 1.1 µM and inactive = higher.

In the case of `CC(=O)OCC1=C(CCC#N)N2C(=O)C(NC(=O)Cc3cccs3)C2[S+]([O-])C1` (stereo not drawn), the GI50 in the test on OVCAR-3, in the test with ACHN, with LOX IMVI, in the test with Malme-3M, in the test with NCI-H226 and in the test on NCI-H23 was > 100 µM (inactive) throughout. The GI50 in the test with HL-60, with SNB-19, with SNB-75, with SF-268, in the test with K562 and in the test on RXF 393 was > 100 µM (inactive) each time. The GI50 is > 100 µM (inactive) with OVCAR-4; > 100 µM (inactive) in the test with COLO 205; > 100 µM (inactive) in the test with SK-MEL-2; over 100 µM with HCT-15; > 100 µM (inactive) in the test on UACC-62; > 100 µM (inactive) in the test on SW-620.

As for `CC1CC2OC(=O)C3CC(O)CC(=C23)[C@@]12C[C@@H](c1ccoc1)OC2=O` (stereo partly drawn), the GI50 in the test on OVCAR-3, with ACHN, with LOX IMVI, with Malme-3M, in the test with NCI-H226 and in the test with NCI-H23 was > 100 µM (inactive) throughout. For the same molecule, the GI50 with HL-60, in the test with SNB-19, with SNB-75, in the test with SF-268, in the test on K562 and in the test on RXF 393 was > 100 µM (inactive) each time. Also, the GI50 with OVCAR-4 was > 100 µM (inactive); in the test with COLO 205 it was > 100 µM (inactive); in the test with SK-MEL-2, > 100 µM (inactive); with HCT-15 it was over 100 µM; in the test on UACC-62, > 100 µM (inactive); in the test with SW-620, > 100 µM (inactive).

Take `CC(=O)OCCOCNC(=S)N/N=C/c1cc([N+](=O)[O-])ccc1O`: the GI50 was 42.5 µM (inactive) in the test with OVCAR-3; > 100 µM (inactive) in the test with ACHN; > 100 µM (inactive) with LOX IMVI; > 100 µM (inactive) with Malme-3M; > 100 µM (inactive) with NCI-H226; > 100 µM (inactive) in the test on NCI-H23. Also, the GI50 with HL-60 was > 100 µM (inactive); in the test on SNB-19 it was > 100 µM (inactive); with SNB-75 it was > 100 µM (inactive); in the test with SF-268, 77.4 µM (inactive); with K562, > 100 µM (inactive); in the test on RXF 393, > 100 µM (inactive). The GI50 in the test with OVCAR-4 is 84.5 µM (inactive); with COLO 205, 75 µM (inactive); with SK-MEL-2, > 100 µM (inactive); with HCT-15, over 100 µM; in the test on UACC-62, 69.8 µM (inactive); in the test on SW-620 it was 84.9 µM (inactive).

With `Ic1cc2c(cc1C1SCCCS1)OCO2`, the GI50 in the test on OVCAR-3 was > 100 µM (inactive); with ACHN, > 100 µM (inactive); in the test on LOX IMVI, > 100 µM (inactive); in the test on Malme-3M, > 100 µM (inactive); with NCI-H226, > 100 µM (inactive); in the test with NCI-H23, 64.7 µM (inactive). Besides, the GI50 with HL-60, with SNB-19, in the test with SNB-75, in the test with SF-268, in the test with K562 and with RXF 393 was > 100 µM (inactive) throughout. Further, the GI50 with OVCAR-4 is > 100 µM (inactive); in the test with COLO 205, > 100 µM (inactive); in the test on SK-MEL-2, > 100 µM (inactive); in the test with HCT-15 it was over 100 µM; in the test with UACC-62, > 100 µM (inactive); with SW-620 it was > 100 µM (inactive).

In the case of `CC(=O)OCCOCNC(=S)N/N=C/c1ccc2ccccc2n1`, the GI50 was 35.3 µM (inactive) in the test on OVCAR-3; 23 µM (inactive) in the test on ACHN; 43 µM (inactive) in the test with LOX IMVI; 55.5 µM (inactive) with Malme-3M; > 100 µM (inactive) in the test with NCI-H226; 73.1 µM (inactive) in the test on NCI-H23. Moreover, the GI50 in the test on HL-60 is 36.4 µM (inactive); in the test on SNB-19 it was > 100 µM (inactive); in the test on SNB-75, 51.3 µM (inactive); in the test with SF-268, 34.9 µM (inactive); in the test on K562 it was 53.2 µM (inactive); in the test on RXF 393, 46.2 µM (inactive). For the same molecule, the GI50 in the test on OVCAR-4 is 63 µM (inactive); in the test on COLO 205, 26.5 µM (inactive); with SK-MEL-2, > 100 µM (inactive); in the test with HCT-15 it was 29.8 µM; with UACC-62, 21.8 µM (inactive); in the test on SW-620 it was 36.1 µM (inactive).

As to `C=CCCC12CCCC(=O)C1Sc1ccc3ccccc3c12` (stereo not drawn), the GI50 with OVCAR-3 was 13.6 µM (inactive); with ACHN, 24.8 µM (inactive); in the test with LOX IMVI, 13.6 µM (inactive); in the test with Malme-3M, 16.4 µM (inactive); in the test with NCI-H226 it was 14.1 µM (inactive); in the test with NCI-H23, 19.7 µM (inactive). Also, the GI50 in the test on HL-60 is 7.08 µM (inactive); in the test with SNB-19, 24.4 µM (inactive); in the test with SNB-75, 22.8 µM (inactive); with SF-268, 31.3 µM (inactive); in the test on K562, 16.8 µM (inactive); with RXF 393 it was 12.2 µM (inactive). In addition, the GI50 in the test on OVCAR-4 is 28.6 µM (inactive); in the test on COLO 205, 12.9 µM (inactive); in the test with SK-MEL-2 it was 13.4 µM (inactive); in the test on HCT-15 it was 11.1 µM; in the test with UACC-62 it was 11.9 µM (inactive); in the test with SW-620, 15.9 µM (inactive).

In the case of `c1ccc2c(c1)N=C(c1ccc3ccccc3c1)CC(c1cccc3ccccc13)S2` (stereo not drawn), the GI50 with OVCAR-3 was 33 µM (inactive); in the test on ACHN, 38.5 µM (inactive); in the test on LOX IMVI, 25.3 µM (inactive); in the test on Malme-3M, > 100 µM (inactive); in the test with NCI-H226, 45.4 µM (inactive); in the test on NCI-H23, 25.7 µM (inactive). Besides, the GI50 in the test on HL-60 is 15.1 µM (inactive); in the test with SNB-19, 46.8 µM (inactive); in the test on SNB-75, 56.5 µM (inactive); in the test on SF-268, 48.3 µM (inactive); in the test with K562, 17.2 µM (inactive); in the test on RXF 393, 40.4 µM (inactive). Further, the GI50 was 33.6 µM (inactive) with OVCAR-4; 68.7 µM (inactive) in the test on COLO 205; > 100 µM (inactive) in the test with SK-MEL-2; 21.3 µM in the test with HCT-15; 21 µM (inactive) with UACC-62; 32.8 µM (inactive) in the test on SW-620.

In the case of `COc1cc(OC)c2c(c1)C(=O)C(CC1(C)OCCCO1)=CC2=O`, the GI50 is 8.55 µM (inactive) in the test with OVCAR-3; 9.75 µM (inactive) in the test with ACHN; 4.34 µM (inactive) in the test on LOX IMVI; 8.45 µM (inactive) in the test on Malme-3M; 19.6 µM (inactive) in the test with NCI-H226; 13.2 µM (inactive) in the test with NCI-H23. The GI50 in the test with HL-60 was 2.17 µM (inactive); in the test on SNB-19, 18.2 µM (inactive); with SNB-75, 11 µM (inactive); in the test on SF-268 it was 13.9 µM (inactive); in the test with K562, 2.74 µM (inactive); in the test on RXF 393, 3.54 µM (inactive). Besides, the GI50 in the test with OVCAR-4 is 7.62 µM (inactive); in the test on COLO 205, 14.3 µM (inactive); with SK-MEL-2 it was 15.2 µM (inactive); with HCT-15, 3.92 µM; in the test on UACC-62, 5 µM (inactive); in the test on SW-620, 7.57 µM (inactive).

For `CCC12C=CCN3CC[C@]4(C(=C(C(=O)OC)[C@@H]1Nc1ncnc5c1ncn5C1OC(COC(C)=O)C(OC(C)=O)C1OC(C)=O)Nc1ccccc14)C32` (stereo partly drawn), the GI50 with OVCAR-3 was 1.98 µM (inactive); in the test with ACHN, 2.34 µM (inactive); in the test with LOX IMVI, 1.75 µM (inactive); with Malme-3M, 4.9 µM (inactive); with NCI-H226, 2.36 µM (inactive); with NCI-H23, 1.97 µM (inactive). Also, the GI50 with HL-60 was 2.65 µM (inactive); in the test on SNB-19, 5.62 µM (inactive); in the test with SNB-75, 2.43 µM (inactive); in the test on SF-268 it was 2.05 µM (inactive); in the test on K562, 3.18 µM (inactive); with RXF 393 it was 2 µM (inactive). Further, the GI50 in the test with OVCAR-4 was 2.42 µM (inactive); with COLO 205, 1.88 µM (inactive); with SK-MEL-2, 3.44 µM (inactive); with HCT-15, 3.04 µM; in the test on UACC-62 it was 3.11 µM (inactive); in the test on SW-620, 2.45 µM (inactive).

With `COC(=O)/C([Se]c1c(C)cc(C)cc1C)=C(/[Se]c1c(C)cc(C)cc1C)C(=O)OC`, the GI50 in the test on OVCAR-3, with ACHN, in the test on LOX IMVI, in the test with Malme-3M, in the test on NCI-H226 and in the test with NCI-H23 was > 100 µM (inactive) in each case. The GI50 in the test on HL-60, in the test with SNB-19, with SNB-75, in the test with SF-268, in the test with K562 and in the test with RXF 393 was > 100 µM (inactive) each time. Moreover, the GI50 is > 100 µM (inactive) with OVCAR-4; > 100 µM (inactive) in the test on COLO 205; > 100 µM (inactive) with SK-MEL-2; 81.3 µM with HCT-15; > 100 µM (inactive) in the test on UACC-62; > 100 µM (inactive) in the test on SW-620.

Take `COc1cc2c(c(OC)c1OC)-c1ccc(SC)c(=O)cc1[C@@H](NC(=O)c1ccc(C#N)cc1)CC2`: the GI50 in the test with OVCAR-3, with ACHN, with LOX IMVI, in the test with Malme-3M, in the test with NCI-H226 and in the test on NCI-H23 was < 0.01 µM (active) in each case. The GI50 in the test with HL-60 was < 0.01 µM (active); in the test on SNB-19, < 0.01 µM (active); in the test with SNB-75 it was 0.146 µM (active); in the test with SF-268 it was < 0.01 µM (active); in the test on K562 it was < 0.01 µM (active); in the test on RXF 393, < 0.01 µM (active). In addition, the GI50 was < 0.01 µM (active) in the test on OVCAR-4; < 0.01 µM (active) in the test on COLO 205; < 0.01 µM (active) in the test on SK-MEL-2; under 0.01 µM with HCT-15; < 0.01 µM (active) in the test with UACC-62; < 0.01 µM (active) in the test with SW-620.

The values above are taken from ChEMBL document CHEMBL1201862, “PubChem BioAssay data set” (2004).
